From patent publication US20230041743A1, “1,8-NAPHTHYRIDIN-2-ONE COMPOUNDS FOR THE TREATMENT OF AUTOIMMUNE DISEASE” (Hoffmann-La Roche Inc., priority 2019, published 2023)

target: T1, human TLR9 (Homo sapiens, UniProt Q9NR96); experiment: HEK293-Blue-hTLR-9 cells assay (SEAP reporter, ODN2006 stimulation); format: cell-based; conditions: HEK293-Blue-hTLR9 cells, ODN2006 ligand, 20 hrs incubation; read-out: HEK/hTLR9 IC50
T1 construct: host or cells: HEK293 (HEK-Blue hTLR9)
T1 sequence (Q9NR96 26-1032): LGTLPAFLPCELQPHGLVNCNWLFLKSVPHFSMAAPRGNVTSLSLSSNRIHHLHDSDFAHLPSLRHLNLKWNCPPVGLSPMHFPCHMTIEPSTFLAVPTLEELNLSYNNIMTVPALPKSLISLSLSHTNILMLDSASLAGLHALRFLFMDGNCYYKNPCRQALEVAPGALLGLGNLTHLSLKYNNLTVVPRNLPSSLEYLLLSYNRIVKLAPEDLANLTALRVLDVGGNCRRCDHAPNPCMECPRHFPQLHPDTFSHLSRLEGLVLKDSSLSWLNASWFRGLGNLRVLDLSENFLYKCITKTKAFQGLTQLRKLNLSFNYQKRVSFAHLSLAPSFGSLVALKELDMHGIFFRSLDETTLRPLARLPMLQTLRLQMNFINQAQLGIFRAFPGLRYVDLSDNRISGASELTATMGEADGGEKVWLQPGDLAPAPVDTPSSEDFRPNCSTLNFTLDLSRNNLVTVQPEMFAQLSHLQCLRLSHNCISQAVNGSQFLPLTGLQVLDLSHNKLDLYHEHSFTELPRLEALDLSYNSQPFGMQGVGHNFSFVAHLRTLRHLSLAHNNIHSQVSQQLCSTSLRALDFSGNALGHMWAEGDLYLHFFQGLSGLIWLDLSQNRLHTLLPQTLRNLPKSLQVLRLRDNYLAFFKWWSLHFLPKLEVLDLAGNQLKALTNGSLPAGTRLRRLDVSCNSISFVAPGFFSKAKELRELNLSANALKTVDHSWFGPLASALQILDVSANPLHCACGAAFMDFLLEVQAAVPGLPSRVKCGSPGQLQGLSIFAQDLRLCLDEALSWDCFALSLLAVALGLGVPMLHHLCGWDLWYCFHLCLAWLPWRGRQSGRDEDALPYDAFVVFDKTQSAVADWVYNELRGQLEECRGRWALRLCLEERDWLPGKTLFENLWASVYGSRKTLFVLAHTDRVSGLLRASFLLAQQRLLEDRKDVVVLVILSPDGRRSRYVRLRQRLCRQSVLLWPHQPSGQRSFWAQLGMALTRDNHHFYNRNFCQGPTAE
Text: HEK293-Blue-hTLR-9 Cells Assay:
A stable HEK293-Blue-hTLR-9 cell line was purchased from InvivoGen (Cat. #: hkb-htlr9, San Diego, Calif., USA). These cells were originally designed for studying the stimulation of human TLR9 by monitoring the activation of NF-κB. A SEAP (secreted embryonic alkaline phosphatase) reporter gene was placed under the control of the IFN-β minimal promoter fused to five NF-κB and AP-1-binding sites. The SEAP was induced by activating NF-κB and AP-1 via stimulating HEK-Blue hTLR9 cells with TLR9 ligands. Therefore the reporter expression was declined by TLR9 antagonist under the stimulation of a ligand, such as ODN2006 (Cat. #: tlrl-2006-1, Invivogen, San Diego, Calif., USA), for incubation of 20 hrs. The cell culture supernatant SEAP reporter activity was determined using QUANTI-Blue™ kit (Cat. #: rep-qb1, Invivogen, San Diego, Calif., USA) at a wavelength of 640 nm, a detection medium that turns purple or blue in the presence of alkaline phosphatase.
HEK293-Blue-hTLR9 cells were incubated at a density of 250,000˜450,000 cells/mL in a volume of 170 μL in a 96-well plate in Dulbecco's Modified Eagle's medium (DMEM) containing 4.5 g/L glucose, 50 U/mL penicillin, […], 2 mM L-glutamine, 10% (v/v) heat-inactivated fetal bovine serum with addition of 20 μL test compound in a serial dilution in the presence of final DMSO at 1% and 10 μL of 20 uM ODN2006 in above DMEM, perform incubation under 37° C. in a CO2 incubator for 20 hrs. Then 20 μL of the supernatant from each well was incubated with 180 μL Quanti-blue substrate solution at 37° C. for 2 h and the absorbance was read at 620˜655 nm using a spectrophotometer. The signaling pathway that TLR9 activation leads to downstream NF-κB activation has been widely accepted, and therefore similar reporter assay was modified for evaluating TLR9 antagonist.

| SMILES | IC50 [nM] |
| --- | --- |
| C[C@@H]1CN(c2cc(=O)n(C)c3ncccc23)C[C@@H]2c3ccc(N4CC(C)(N)C4)cc3CN12 [Example 1, 4-[(4R,10bS)-8-(3-amino-3-methyl-azetidin-1-yl)-4-methyl-3,4,6,10b-tetrahydro-1H-pyrazino[2,1-a]isoindol-2-yl]-1-methyl-1,8-naphthyridin-2-one] | 262 |
| C[C@@H]1CN(c2cc(=O)n(C)c3ncccc23)C[C@@H]2c3ccc(N4CC5(CN(C)C5)C4)cc3CN12 [Example 2, 4-[(4R,10bS)-4-methyl-8-(6-methyl-2,6-diazaspiro[3.3]heptan-2-yl)-3,4,6,10b-tetrahydro-1H-pyrazino[2,1-a]isoindol-2-yl]-1-methyl-1,8-naphthyridin-2-one] | 136 |
| C[C@@H]1CN(c2cc(=O)n(C)c3ncccc23)C[C@@H]2c3ccc(N4CC5(CNCCO5)C4)cc3CN12 [Example 3, 4-[(4R,10bS)-4-methyl-8-(5-oxa-2,8-diazaspiro[3.5]nonan-2-yl)-3,4,6,10b-tetrahydro-1H-pyrazino[2,1-a]isoindol-2-yl]-1-methyl-1,8-naphthyridin-2-one] | 325 |
| C[C@@H]1CN(c2cc(=O)n(C)c3ncccc23)C[C@@H]2c3ccc(N4CC[C@@](C)(N)C4)cc3CN12 [Example 4, 4-[(4R,10bS)-8-[(3R)-3-amino-3-methyl-pyrrolidin-1-yl]-4-methyl-3,4,6,10b-tetrahydro-1H-pyrazino[2,1-a]isoindol-2-yl]-1-methyl-1,8-naphthyridin-2-one] | 127 |
| CO[C@@H]1CN(c2ccc3c(c2)CN2[C@H](C)CN(c4cc(=O)n(C)c5ncccc45)C[C@H]32)C[C@H]1N [Example 5, 4-[(4R,10bS)-8-[(3R,4R)-3-amino-4-methoxy-pyrrolidin-1-yl]-4-methyl-3,4,6,10b-tetrahydro-1H-pyrazino[2,1-a]isoindol-2-yl]-1-methyl-1,8-naphthyridin-2-one] | 257 |
| C[C@@H]1CN(c2cc(=O)n(C)c3ncccc23)C[C@@H]2c3ccc(N4C[C@H]5NCCO[C@@H]5C4)cc3CN12 [Example 6, 4-[(4R,10bS)-8-[(4aR,7aR)-3,4,4a,5,7,7a-hexahydro-2H-pyrrolo[3,4-b][1,4]oxazin-6-yl]-4-methyl-3,4,6,10b-tetrahydro-1H-pyrazino[2,1-a]isoindol-2-yl]-1-methyl-1,8-naphthyridin-2-one] | 197 |
| C[C@@H]1CN(c2cc(=O)n(C)c3ncccc23)C[C@@H]2c3ccc(N4C[C@@H](N)[C@@H](F)C4)cc3CN12 [Example 7, 4-[(4R,10bS)-8-[(3R,4S)-3-amino-4-fluoro-pyrrolidin-1-yl]-4-methyl-3,4,6,10b-tetrahydro-1H-pyrazino[2,1-a]isoindol-2-yl]-1-methyl-1,8-naphthyridin-2-one] | 247 |
| CO[C@H]1CN(c2ccc3c(c2)CN2[C@H](C)CN(c4cc(=O)n(C)c5ncccc45)C[C@H]32)CC[C@@H]1N [Example 8, 4-[(4R,10bS)-8-[(3S,4S)-4-amino-3-methoxy-1-piperidyl]-4-methyl-3,4,6,10b-tetrahydro-1H-pyrazino[2,1-a]isoindol-2-yl]-1-methyl-1,8-naphthyridin-2-one] | 226 |
| CO[C@H]1CCN(c2ccc3c(c2)CN2[C@H](C)CN(c4cc(=O)n(C)c5ncccc45)C[C@H]32)C[C@@H]1N [Example 9, 4-[(4R,10bS)-8-[(3S,4S)-3-amino-4-methoxy-1-piperidyl]-4-methyl-3,4,6,10b-tetrahydro-1H-pyrazino[2,1-a]isoindol-2-yl]-1-methyl-1,8-naphthyridin-2-one] | 266 |
| COC[C@@H]1CNCCN1c1ccc2c(c1)CN1[C@H](C)CN(c3cc(=O)n(C)c4ncccc34)C[C@H]21 [Example 10, 4-[(4R,10bS)-8-[(2S)-2-(methoxymethyl)piperazin-1-yl]-4-methyl-3,4,6,10b-tetrahydro-1H-pyrazino[2,1-a]isoindol-2-yl]-1-methyl-1,8-naphthyridin-2-one] | 248 |
| C[C@@H]1CN(c2cc(=O)n(C)c3ncccc23)C[C@@H]2c3ccc(N4CCOC5(CNC5)C4)cc3CN12 [Example 11, 4-[(4R,10bS)-4-methyl-8-(5-oxa-2,8-diazaspiro[3.5]nonan-8-yl)-3,4,6,10b-tetrahydro-1H-pyrazino[2,1-a]isoindol-2-yl]-1-methyl-1,8-naphthyridin-2-one] | 88 |
| C[C@@H]1CN(c2cc(=O)n(C)c3ncccc23)C[C@@H]2c3ccc(N4CCNCC4)cc3CN12 [Example 12, 4-[(4R,10bS)-4-methyl-8-piperazin-1-yl-3,4,6,10b-tetrahydro-1H-pyrazino[2,1-a]isoindol-2-yl]-1-methyl-1,8-naphthyridin-2-one] | 192 |
| C[C@@H]1CN(c2cc(=O)n(C)c3ncccc23)C[C@@H]2c3ccc(N4CCN[C@@H](C)C4)cc3CN12 [Example 13, 4-[(4R,10bS)-4-methyl-8-[(3S)-3-methylpiperazin-1-yl]-3,4,6,10b-tetrahydro-1H-pyrazino[2,1-a]isoindol-2-yl]-1-methyl-1,8-naphthyridin-2-one] | 186 |
| C[C@@H]1CN(c2ccc3c(c2)CN2[C@H](C)CN(c4cc(=O)n(C)c5ncccc45)C[C@H]32)CCN1 [Example 14, 4-[(4R,10bS)-4-methyl-8-[(3R)-3-methylpiperazin-1-yl]-3,4,6,10b-tetrahydro-1H-pyrazino[2,1-a]isoindol-2-yl]-1-methyl-1,8-naphthyridin-2-one] | 144 |
| C[C@@H]1CN(c2cc(=O)n(C)c3ncccc23)C[C@@H]2c3ccc(N4CCC[C@](C)(N)C4)cc3CN12 [Example 15, 4-[(4R,10bS)-8-[(3S)-3-amino-3-methyl-1-piperidyl]-4-methyl-3,4,6,10b-tetrahydro-1H-pyrazino[2,1-a]isoindol-2-yl]-1-methyl-1,8-naphthyridin-2-one] | 84 |
| C[C@@H]1CN(c2cc(=O)n(C)c3ncccc23)C[C@@H]2c3ccc(N4CCC[C@@H](N)C4)cc3CN12 [Example 16, 4-[(4R,10bS)-8-[(3R)-3-amino-1-piperidyl]-4-methyl-3,4,6,10b-tetrahydro-1H-pyrazino[2,1-a]isoindol-2-yl]-1-methyl-1,8-naphthyridin-2-one] | 101 |
| C[C@@H]1CNCCN1c1ccc2c(c1)CN1[C@H](C)CN(c3cc(=O)n(C)c4ncccc34)C[C@H]21 [Example 17, 4-[(4R,10bS)-4-methyl-8-[(2R)-2-methylpiperazin-1-yl]-3,4,6,10b-tetrahydro-1H-pyrazino[2,1-a]isoindol-2-yl]-1-methyl-1,8-naphthyridin-2-one] | 222 |
| C[C@@H]1CN(c2cc(=O)n(C)c3ncccc23)C[C@@H]2c3ccc(N4CCC(C)(N)CC4)cc3CN12 [Example 18, 4-[(4R,10bS)-8-(4-amino-4-methyl-1-piperidyl)-4-methyl-3,4,6,10b-tetrahydro-1H-pyrazino[2,1-a]isoindol-2-yl]-1-methyl-1,8-naphthyridin-2-one] | 163 |
| C[C@@H]1CN(c2cc(=O)n(C)c3ncccc23)C[C@@H]2c3ccc(N4C[C@@H]5C[C@H]4CN5)cc3CN12 [Example 19, 4-[(4R,10bS)-8-[(1S,4S)-2,5-diazabicyclo[2.2.1]heptan-2-yl]-4-methyl-3,4,6,10b-tetrahydro-1H-pyrazino[2,1-a]isoindol-2-yl]-1-methyl-1,8-naphthyridin-2-one] | 116 |
